Measured values as given in paper PMC9496563, “Functional Evaluation and Nephrotoxicity Assessment of Human Renal Proximal Tubule Cells on a Chip” (Biosensors, 2022).
Read-outs that look alike come from different tables or passages of the source.

Columns and labels:
hRPTECs [1] = assay type: cell-based
Description: (§1) After the microdevice was assembled, it was exposed to ultraviolet light for 30 min. The porous membrane was coated with collagen type I hydrogel at 37 °C for 2 h. The hRPTECs or HK2 cells (2 × 10^5 cells/ cm^2) were seeded on the lower microfluidic channel and incubated upside down at 37 °C for 2 h, allowing the seeded hRPTECs or HK2 cells to attach to the porous membrane surface. Then, 100 μL of the culture medium was added to each chamber and the device was placed on the iBAC Rocker (MR100110, Daxiang biotech, Beijing, China) for dynamic culture.
(§2) The Live/Dead kit (Thermo Fisher, Waltham, MA, USA), LDH kit (Life Technologies, Paisley, UK) and CellTiter-Glo (Promega, Madison, WI, USA) were used to evaluate cell viability on the iBAC. These assays were performed on test compound-treated monolayers following the manufacturer’s instructions. The assay protocols are described briefly here. In the live/dead cell assay, the cells were incubated with the live/dead cell imaging reagents for 15–30 min at 37 °C and observed under a fluorescent microscope. The viable cells were stained green, while the dead ones were stained red. In the CellTiter-Glo luminescent cell viability assay, the cells were incubated with the CellTiter-Glo reagents for 30 min at room temperature and detected with a microplate reader. For the LDH assay, 50 μL of medium from each well of the treatment plates was transferred into fresh 96-well plates and an equal volume of LDH reaction mixture was added. The samples were incubated at room temperature for 30 min before the reaction was stopped by adding 50 μL of stop solution. The absorbance was then taken at 490 nm and 680 nm using a microplate reader (BMG Labtech, Germany).

HK2 cells [2] = experiment: cells; assay type: cell-based; conditions: HK2 cells on the iBAC, 48 h; for IC50: Homo sapiens, HK-2, apical side, read-out: IC50 (cell viability)
Description: as §1, §2

HK2 cells [3] = experiment: Active absorption (Papp) through HK2 model on the iBAC; assay type: in vitro ADME, human; conditions: day 4
Description: as §1
(§3) After two hours of dynamic absorption, the sample concentrations of FITC-albumin (Ex = 495 nm, Em = 535 nm), ASP+ (Ex = 474 nm, Em = 606 nm) and 5−CF (Ex = 490 nm, Em = 515 nm) were detected by using a microplate reader (BMG Labtech, Germany).
(§4) The Papp was calculated using the equation below:Papp [cm/s] = (1/AC0)(dQ/dt) where A = area of mass transfer, C0 = donor concentration of reagent in the upper medium, and dQ/dt = transmembrane transportation rate.

hRPTECs [4] = experiment: Active absorption (Papp) through hRPTECs on the iBAC; assay type: in vitro ADME, human; conditions: for Papp value: hRPTECs on the iBAC, day 4, two hours of dynamic absorption, FITC-albumin (Megalin/Cubilin), ASP+ (OCT2), 5-CF (OAT1)
Description: as §1, §3, §4

hRPTECs [5] = experiment: Active absorption (Papp) through hRPTECs on the static Transwell; assay type: in vitro ADME, human; conditions: day 4
Description: as §3, §4

BCRP [6] = target: T1, BCRP (Homo sapiens, UniProt Q9UNQ0); experiment: BCRP efflux function (DiOC2 with or without Ko143), hRPTECs on the iBAC; assay type: in vitro ADME
T1 sequence (Q9UNQ0 1-655): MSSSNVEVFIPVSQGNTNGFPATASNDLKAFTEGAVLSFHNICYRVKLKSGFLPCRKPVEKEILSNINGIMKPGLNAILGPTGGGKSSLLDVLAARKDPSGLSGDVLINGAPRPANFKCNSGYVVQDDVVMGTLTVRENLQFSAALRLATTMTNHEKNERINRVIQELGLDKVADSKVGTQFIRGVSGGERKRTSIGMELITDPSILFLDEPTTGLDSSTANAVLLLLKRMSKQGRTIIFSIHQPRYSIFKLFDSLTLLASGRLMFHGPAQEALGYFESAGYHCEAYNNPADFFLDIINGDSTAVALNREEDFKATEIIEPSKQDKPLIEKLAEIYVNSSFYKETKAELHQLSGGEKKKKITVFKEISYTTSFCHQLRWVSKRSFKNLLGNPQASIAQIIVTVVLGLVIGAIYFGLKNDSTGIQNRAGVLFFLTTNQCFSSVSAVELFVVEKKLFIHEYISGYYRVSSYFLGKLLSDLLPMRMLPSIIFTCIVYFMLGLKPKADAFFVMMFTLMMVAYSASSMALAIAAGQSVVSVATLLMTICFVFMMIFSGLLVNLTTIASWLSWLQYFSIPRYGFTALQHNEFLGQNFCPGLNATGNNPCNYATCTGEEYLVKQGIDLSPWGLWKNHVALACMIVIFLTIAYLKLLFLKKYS
Description: as §4

BCRP [7] = target: T1, BCRP; experiment: BCRP efflux function (DiOC2 with or without Ko143), HK2 model on the iBAC; assay type: in vitro ADME; conditions: without inhibitor
Description: as §4

P-gp [8] = target: T2, P-gp (Homo sapiens, UniProt P08183); experiment: P-gp efflux function (rhodamine 123 with or without verapamil), HK2 model on the iBAC; conditions: without inhibitor
T2 sequence (P08183 whole entry): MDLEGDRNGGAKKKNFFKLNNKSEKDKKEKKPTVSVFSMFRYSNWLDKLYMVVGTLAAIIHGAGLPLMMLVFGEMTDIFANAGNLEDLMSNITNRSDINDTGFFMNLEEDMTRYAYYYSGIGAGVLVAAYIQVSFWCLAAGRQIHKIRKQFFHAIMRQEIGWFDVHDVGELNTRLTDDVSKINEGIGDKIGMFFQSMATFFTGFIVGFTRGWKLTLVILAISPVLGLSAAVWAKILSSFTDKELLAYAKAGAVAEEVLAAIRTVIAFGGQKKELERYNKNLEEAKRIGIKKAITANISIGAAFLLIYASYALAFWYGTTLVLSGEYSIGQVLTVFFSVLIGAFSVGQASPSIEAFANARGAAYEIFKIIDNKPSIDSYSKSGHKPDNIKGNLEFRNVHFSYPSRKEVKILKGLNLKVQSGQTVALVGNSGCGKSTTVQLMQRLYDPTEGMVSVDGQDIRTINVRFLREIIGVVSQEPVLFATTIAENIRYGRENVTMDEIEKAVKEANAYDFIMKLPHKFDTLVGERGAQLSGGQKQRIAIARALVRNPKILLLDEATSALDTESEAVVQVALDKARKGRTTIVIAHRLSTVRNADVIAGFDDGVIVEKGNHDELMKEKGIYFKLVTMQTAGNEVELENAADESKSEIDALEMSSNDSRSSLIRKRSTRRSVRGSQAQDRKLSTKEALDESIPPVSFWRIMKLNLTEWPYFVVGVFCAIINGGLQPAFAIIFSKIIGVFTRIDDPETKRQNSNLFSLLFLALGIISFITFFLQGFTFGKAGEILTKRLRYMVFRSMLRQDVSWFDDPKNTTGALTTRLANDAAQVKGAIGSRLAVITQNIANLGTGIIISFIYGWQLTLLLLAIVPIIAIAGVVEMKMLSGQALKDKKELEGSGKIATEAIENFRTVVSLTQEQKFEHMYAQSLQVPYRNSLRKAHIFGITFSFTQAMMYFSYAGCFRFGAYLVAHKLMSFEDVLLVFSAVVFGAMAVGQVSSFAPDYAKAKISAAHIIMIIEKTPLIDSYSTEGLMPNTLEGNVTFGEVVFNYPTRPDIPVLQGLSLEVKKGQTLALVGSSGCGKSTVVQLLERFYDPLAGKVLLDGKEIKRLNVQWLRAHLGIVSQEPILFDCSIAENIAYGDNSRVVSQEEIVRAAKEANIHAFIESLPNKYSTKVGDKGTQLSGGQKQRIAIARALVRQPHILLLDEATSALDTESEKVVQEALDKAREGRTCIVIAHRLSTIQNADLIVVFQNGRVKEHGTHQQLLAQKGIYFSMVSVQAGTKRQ

P-gp [9] = target: T2, P-gp; experiment: in vitro
P-gp [10] = target: T2, P-gp; experiment: P-gp efflux function (rhodamine 123 with or without verapamil), hRPTECs on the iBAC; conditions: hRPTECs model, without inhibitor
HK2 cells [11] = experiment: LDH release from HK2 cells on the iBAC; assay type: cell-based, human; conditions: 24 h
Description: as §1
as §2, with “The viable cells were stained green, while the dead ones were stained red.” left out, “For the LDH assay, 50 μL of medium from each well of the treatment plates was transferred into fresh 96-well plates and an equal volume of LDH reaction mixture was added. The samples were incubated at room temperature for 30 min before the reaction was stopped by adding 50 μL of stop solution.” left out

hRPTECs [12] = assay type: cell-based, human; conditions: hRPTECs on the iBAC, 24 h
Description: as §1
as §2, with “The viable cells were stained green, while the dead ones were stained red.” left out, “For the LDH assay, 50 μL of medium from each well of the treatment plates was transferred into fresh 96-well plates and an equal volume of LDH reaction mixture was added. The samples were incubated at room temperature for 30 min before the reaction was stopped by adding 50 μL of stop solution.” left out

polymyxin B was tested, and the “Toxicity on the apical side (cell viability)” value (shortened to “Toxicity on the apical side”) (hRPTECs [1]; hRPTECs on the iBAC, apical administration, 48 h) was “induced toxicity”, the “Toxicity on the basal side (cell viability)” value (shortened to “Toxicity on the basal side”) (hRPTECs [1]; hRPTECs on the iBAC, basal administration, 48 h) was “induced toxicity” and the “Toxicity on both sides (cell viability)” value (HK2 cells [2]; apical and basal administration) was “not toxic”.
For `CN(C)c1ccc(/C=C/c2cc[n+](C)cc2)cc1.[I-]` [ASP+, 4-Di-1-ASP], the Papp value (HK2 cells [3]) was 2.3 ×10⁻⁶ cm/s, the Papp value (hRPTECs [4]) was 9.2 ×10⁻⁶ cm/s and the “Papp value, iBAC compared with Transwell” value (hRPTECs [4]; hRPTECs, day 4) was “significantly higher than that on the Transwell”.
With 5(6)-Carboxyfluorescein [5−CF] the Papp value (HK2 cells [3]) was 0.009 ×10⁻⁶ cm/s, the Papp value (hRPTECs [5]) was 0.002 ×10⁻⁶ cm/s and the Papp value (hRPTECs [4]) was 0.039 ×10⁻⁶ cm/s.
For `CCN(CC)CCNC(=O)c1c(C)[nH]c(/C=C2\C(=O)Nc3ccc(F)cc32)c1C` [sunitinib], the “Toxicity on the apical side” value (hRPTECs [1]) was “induced toxicity”, the “Toxicity on the basal side” value (hRPTECs [1]) was “only induced nephrotoxicity on the apical side dosing” and the IC50 (HK2 cells [2]) was 29 µM.
In the case of `CCN1/C(=C/C=C/c2oc3ccccc3[n+]2CC)Oc2ccccc21.[I-]` [DiOC2], the “Cumulative amount of substrate in cells” value (BCRP [6]; hRPTECs model, without inhibitor) is reported as “very low”, the “Papp value of DiOC2 without Ko143” value (BCRP [6]; hRPTECs on the iBAC, DiOC2 10 μM) is reported as 4.6 ×10⁻⁶ cm/s and the “Papp value of DiOC2 with Ko143” value (BCRP [6]; hRPTECs on the iBAC, DiOC2 10 μM, Ko143 10 μM) is reported as 4.1 ×10⁻⁶ cm/s. The “Cumulative amount of substrate in cells” value (BCRP [7]) was “very low”.
For `COC(=O)c1ccccc1-c1c2ccc(=N)cc-2oc2cc(N)ccc12` [rhodamine 123, Rhodamine 123], the “Cumulative amount of substrate in cells” value (P-gp [8]) was “very low”, the Papp at 2 h, 2 μM (P-gp [9]) was 13 ×10⁻⁶ cm/s and the “Cumulative amount of substrate in cells” value (P-gp [10]) was “very low”.
`COc1cccc2c1C(=O)c1c(O)c3c(c(O)c1C2=O)C[C@@](O)(C(=O)CO)C[C@@H]3O[C@H]1C[C@H](N)[C@H](O)[C@H](C)O1` [doxorubicin] was tested, and the “Toxicity on the apical side” value (hRPTECs [1]) was “induced toxicity”, the “Toxicity on the basal side” value (hRPTECs [1]) was “only induced nephrotoxicity on the apical side dosing” and the IC50 (HK2 cells [2]) was 14.2 µM.
In the case of `CN/C(=N/CCSCc1nc[nH]c1C)NC#N` [cimetidine, Cimetidine], the “Relative LDH release with cisplatin in the presence of the cimetidine” value (HK2 cells [11]) is reported as 109% and the “Relative LDH release with cisplatin in the presence of the cimetidine” value (hRPTECs [12]) is reported as 93%.
